For 79 compounds, RP-LC retention time results are on record in the METLIN SMRT retention time set (Domingo-Almenara et al. 2019).

A short description of this series: gradient 5% acetonitrile 3 min, to 50% in 2 min, to 85% in 15 min, held 3 min, 100 µL/min. As to conditions: column: Zorbax Extend-C18 2.1 x 50 mm; eluents: water / acetonitrile, 0.1% formic acid. The essentials:
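The system's dead and dwell volumes were 40 μL and 900 μL, with a Zorbax Extend-C18 column (2.1 × 50 mm, 1.8 μm) run at 100 μL/min in water and acetonitrile containing 0.1% formic acid each. Pure standards were analyzed in mixtures of ~100 molecules by HPLC–quadrupole time-of-flight mass spectrometry in positive and negative ionization mode. Retention time was assigned from computationally picked, manually inspected adduct peaks.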
On to `Cc1nc2cc(-c3noc(CNC(=O)c4cccs4)n3)ccc2o1`, for which the RP-LC retention time was 747 s.
Under `COc1ccc(Cl)cc1C(=O)NC1(c2nc(C)no2)CCCCC1` stands 1010 s; under `CN(C)C(=O)c1csc(S(=O)(=O)N2CCC(C(=O)NCc3ccc4c(c3)OCO4)CC2)c1`, 714 s; under `O=C(NCCn1ncccc1=O)C1(c2cccs2)CCCC1`, 652 s.
In turn, `CCCCc1ccc(NC(=O)Cn2nc3cc(C)nc(-c4ccc(Cl)cc4)n3c2=O)cc1` gave an RP-LC retention time of 1200 s.
Under `COc1ccc2c(c1O)-c1cccc3c1[C@@H](C2)N(C)CC3` stands 643 s; under `CCCn1cc(CCNS(=O)(=O)Cc2ccc(F)cc2Cl)c2cccnc21`, 900 s.
The figure for `CSc1c(C)c(SC)n2ccncc12` is 725 s; for `COc1ccc2c(c1)c(CN1CCC(C(=O)NCc3ccccc3C)CC1)cn2C` it is 697 s; for `Cc1ccc(Cl)cc1N(C)C(=O)Cn1ccc2c(=O)n(C)c(=O)n(C)c21` it is 738 s.
Under `O=C(NCc1ccc(OC(F)(F)F)cc1)C1CCCN(c2nnc3ccccn23)C1` (centres undefined) stands 727 s; under `CCOC(=O)C1CCCN(S(=O)(=O)c2cccs2)C1` (centres undefined), 830 s.
`CCOC(=O)C1CCN(C(=O)C2CCN(c3nnc(-c4ccccc4)o3)CC2)CC1` had an RP-LC retention time of 801 s.
Under `O=C(Cn1cc(-c2ccc(F)cc2)oc1=O)NCc1ccc(N2CCCCC2)cc1` stands 635 s.
`CC(C)n1c(=O)sc2cc(S(=O)(=O)N3CCC(C(=O)Nc4ccc(F)cc4)CC3)ccc21`: the RP-LC retention time amounted to 973 s.
The figure for `CNC(=O)CSc1nnc(N2CCN(C(=O)Cc3ccc([N+](=O)[O-])cc3)CC2)s1` is 618 s; for `CCN1C(=O)c2cc(C(=O)Nc3cc(C)cc(C)c3)nn2CC1(C)C(=O)NC1CCCC1` (centres undefined) it is 917 s.
The figure for `Cn1c(=O)c2cc(C(=O)N3CCN(c4ccc(F)cc4)CC3)sc2n(C)c1=O` is 796 s.
The figure for `CCOc1cccc2cc(C(=O)N3CCOCC3)oc12` is 718 s.
For `Cc1nc(-c2ccccc2)cc2nn(CC(=O)Nc3cc(F)cc(F)c3)c(=O)n12`, the RP-LC retention time was determined as 998 s.
Under `c1ccc(CCNc2nnc(-c3nc(C4CC4)no3)c3ccccc23)nc1` stands 629 s.
The figure for `Cc1ccnc(Nc2nc(-c3ccccc3C)cs2)c1` is 821 s.
`COc1ccc(CC(=O)Nc2nnc(SCc3nnc(-c4ccccc4C)o3)s2)cc1` came in with an RP-LC retention time of 923 s.
The figure for `CCn1cc(S(=O)(=O)N2CCN(c3ccccc3)CC2)c2cccnc21` is 969 s; for `O=S(=O)(c1cccc(-c2nnc(-c3ccccc3Br)o2)c1)N1CCOCC1` it is 940 s; for `Cc1nc(-c2csc(S(=O)(=O)N3CCCC(C(=O)NCCc4cccs4)C3)c2)no1` (centres undefined) it is 872 s.
In the case of `Cc1ccc(NC(=O)c2sc(C)nc2C)c(Cl)c1`, the RP-LC retention time is 907 s.
The figure for `CCc1nc2cc(N3CCCC(C(=O)NC4CC4)C3)cnc2nc1CC` (centres undefined) is 696 s.
Consider `CC1(C)C(=O)Nc2ccc(S(=O)(=O)N3CCC(c4noc(-c5ccccn5)n4)C3)cc21` (centres undefined), for which the RP-LC retention time was 705 s.
Compound `Cc1noc([C@@H]2CN(Cc3ccc(F)cc3F)C[C@H]2CO)n1` yielded an RP-LC retention time of 580 s.
The figure for `CCN1CCN(c2cc(C(=O)O)c3cc(NS(=O)(=O)c4cccc(C)c4)ccc3n2)CC1` is 596 s.
The figure for `O=C(Cn1c(=O)n(C2CCCCC2)c2ncccc21)NCCCN1CCOCC1` is 612 s; for `O=C(CSCc1ccccc1)Nc1cccc(-c2cn3cccnc3n2)c1` it is 640 s; for `COc1cc(N2CCN(S(=O)(=O)c3ccccc3F)CC2)nc(OC)n1` it is 816 s.
`Cc1ccc(N2CCN(C(=O)CN3CCN(Cc4ccc(F)cc4)C3=O)CC2)cc1` yielded an RP-LC retention time of 837 s.
Under `CCN1C(=O)COc2ccc(-c3nc(NC(=O)c4ccccc4C)sc3C)cc21` stands 1010 s; under `O=C(NC1CCN(C(=O)C2CC2)C1)c1ccc(F)cc1` (centres undefined), 666 s.
Under `COc1ccc(NC(=O)Cn2nc(C(=O)N3CCCCC3)c3ccccc32)cc1OC` stands 756 s; under `N#Cc1ccsc1NC(=O)c1ccc(S(=O)(=O)N2CCOCC2)cc1`, 749 s; under `CC(=O)Nc1nc(-c2ccc3c(c2)N(C)C(=O)CO3)c(C)s1`, 726 s.
Turning to `Cc1ccccc1NC(=O)Cn1nc2cc(-c3ccccc3)nc(C)n2c1=O`, the RP-LC retention time was 907 s.
`O=C(c1nnc(-c2ccc(S(=O)(=O)N3CCCCC3)cc2)o1)N1CCC(Cc2ccccc2)CC1`: the RP-LC retention time stood at 1230 s.
`CC(C)NC(=O)N1CCN(Cc2nc3cccnc3n2-c2cccc(F)c2)CC1` returned an RP-LC retention time of 609 s.
Under `COc1ccc(NS(=O)(=O)c2c(C)nn(-c3ccc(-c4ccc(C)c(C)c4)nn3)c2C)cc1OC` stands 1050 s.
Under `Cc1noc(C)c1S(=O)(=O)N1CCCN(S(=O)(=O)c2ccccc2)CCC(=O)NCC1` stands 752 s; under `O=C(COc1ccc(F)cc1)N1C[C@@H]2C[C@H]1C[C@@H]2NS(=O)(=O)c1ccccc1`, 793 s; under `COc1cc(NC(=O)Cc2csc3nc(-c4ccccc4)cn23)cc(OC)c1`, 795 s.
In turn, `C=CCN(CC=C)S(=O)(=O)c1ccc(C(=O)Nc2nnc(CSC)o2)cc1` showed an RP-LC retention time of 764 s.
The figure for `O=C(Cn1cnc2nc(N3CCC(C(=O)NC4CC4)CC3)sc2c1=O)NC1CCc2ccccc21` (centres undefined) is 670 s.
Consider `CN(C)c1cc(C(=O)Nc2ccccc2)c2ccccc2n1`, for which the RP-LC retention time was 651 s.
Under `Cc1ccc(C)c(-c2csc(NC(=O)c3ccc(C)o3)n2)c1` stands 1100 s; under `CCOC(=O)c1c(C)[nH]c(C)c1S(=O)(=O)N1CCC(C(=O)Nc2cc(Cl)ccc2C)CC1`, 890 s.
The figure for `CC(C)Cc1noc(C2(F)CCN(S(=O)(=O)c3ccccc3Cl)CC2)n1` is 674 s; for `CCc1nncn1C1CCN(S(=O)(=O)c2ccc(F)c(C)c2)CC1` it is 715 s; for `O=C(c1cn(-c2cc(-c3nc(C4CC4)no3)ccn2)cn1)N1CCCCCC1` it is 883 s.
The figure for `CN1C(=O)C2CCCCN2c2ccc(C(=O)NCCCN(C)C3CCCCC3)cc21` (centres undefined) is 655 s; for `CCCC(=O)N1CCCN(C2=NS(=O)(=O)C(c3ccc(F)cc3)=C2C)CC1` it is 780 s; for `O=C(NCCc1csc(-c2ccccc2)n1)C1CCN(S(=O)(=O)c2ccc(Cl)cc2)CC1` it is 984 s.
Take `CC(C)C(=O)Nc1ccc2c(c1)Sc1ncccc1C(=O)N2C(C)C`: the RP-LC retention time is 764 s.
Under `Cc1sc(-c2cc(C(F)(F)F)on2)cc1S(=O)(=O)NC1CC1` stands 1040 s; under `CN(C)S(=O)(=O)c1ccc(-c2nnc(C(=O)NCc3cccs3)o2)cc1`, 812 s; under `COc1ccc2nc3oc(C(=O)N4CCN(Cc5ccc6c(c5)OCO6)CC4)cc3cc2c1`, 670 s.
The figure for `Cc1ccc2c(=O)c(C(=O)Nc3ccc(C)c(C)c3)c[nH]c2n1` is 894 s.
Under `CC(Cc1ccco1)NC(=O)C1CCN(Cc2cn(C)c3ccc(Cl)cc23)CC1` (centres undefined) stands 707 s; under `O=C(Cc1ccccc1Cl)N1CCN(S(=O)(=O)C2CC2)CC1`, 733 s; under `Cc1ccnc(N2CCCC(C(=O)NCc3ccc4c(c3)OCO4)C2)n1` (centres undefined), 692 s.
The compound `CCOC(=O)c1nc(Nc2cc(F)ccc2F)c2ccccc2n1` displayed an RP-LC retention time of 912 s.
Under `CCN(CC)CCNC(=O)C1c2ccccc2C(=O)N2CCc3cc(OC)c(OC)cc3C12` (centres undefined) stands 599 s; under `CCOc1ccc(OCC)c(N2C=C(C#N)S(=O)(=O)c3c(F)cccc32)c1`, 923 s; under `CNS(=O)(=O)c1cccnc1Nc1cc(C)cc(C)c1`, 990 s.
Under `CCCc1nc(-c2ccccc2)oc1CC(=O)Nc1ccc(Br)cc1F` stands 1150 s; under `CCOc1ccccc1CNC(=O)C1CCN(C(=O)c2sccc2-n2cccc2)CC1`, 882 s; under `O=S(=O)(c1cccn2c(SCc3ccccc3Cl)nnc12)N1CCCCC1`, 927 s.
The figure for `CN(C)C(=O)c1n[nH]c2c1CN(C(=O)c1ccc(Br)cc1)CC2` is 634 s; for `COc1ccc(C2(C(=O)N3CC(c4nc(CCOCC5CCOCC5)no4)C3)CC2)cc1` it is 812 s.
The compound `COc1ccc(-c2nnc(-c3cccc(S(=O)(=O)N4CCCC4)c3)o2)cc1OC` gave an RP-LC retention time of 885 s.
Under `COc1ccc(-c2nc3cnccn3c2Nc2ccc(C(=O)NCC3CCCO3)cc2)cc1` (centres undefined) stands 649 s; under `COc1ccccc1CC(=O)N1CCCn2nc(-c3ccc(C)cc3)cc2C1`, 930 s; under `CCOC(=O)c1c(C)c(C(=O)C(C)N(Cc2ccc(F)cc2)C(=O)CC)c(C)n1CC` (centres undefined), 1080 s.
